± gives the expanded uncertainty stated by the source.
Tests used:
[1] = Crystal; DTA
[2] = Molar enthalpy of transition or fusion; conditions: Crystal; DSC

Row | Normal melting temperature [1] | Molar enthalpy of transition or fusion [2] | SMILES
1 | 43.6 ± 0.5 °C | – | CC1=CC(=O)C(C(C)C)=CC1=O [2-isopropyl-5-methylcyclohexa-2,5-diene-1,4-dione]
2 | – | 7.67 ± 0.167 kcal/mol | CC(=O)N[C@@H](CS)C(=O)O [N-acetyl-L-cysteine]
3 | 74.6 ± 0.39 °C | – | CC(C)Cc1ccc(C(C)C(=O)O)cc1 (stereo not given) [ibuprofen]
4 | 172.69 ± 1.1 °C | – | NNC(=O)c1ccncc1 [isonicotinic acid hydrazide]

Row | SMILES | Normal melting temperature [1] | Molar enthalpy of transition or fusion [2]
5 | O=c1cc(O)c2ccccc2o1 [4-hydroxycoumarin] | 215.2 ± 0.39 °C | –
